The numbers were not newly measured in patent publication US9861579B2, “Foamable formulation” (Nuvo Pharmaceuticals Inc., priority 2010, dated 2018), which cites them from elsewhere.

As usually defined, the log P is a log measure of how a compound divides between an organic and an aqueous phase.

In the case of `CC(C)Cc1ccc(C(C)C(=O)O)cc1` (racemic) [Ibuprofen, 2-(4-isobutylphenyl) propanoic acid], the “log P” value is reported as 3.6. Further, where the note is “practically insoluble in water”, the solubility in water is < 0.1 mg/mL.
